Molecular target: T1, PLK1 (Homo sapiens, UniProt P53350)
T1 construct: endogenous in cells; host or cells: HeLa
Assay: PLK1 protein degradation in HeLa cells, Western blotting (PLK1/GAPDH ratio)
Assay type: cell-based
Conditions: 6 hours compound incubation; for DC50: measured only if the grade of Dmax is A or B; for Dmax: thymidine block and release, 10 points three-fold from 3 μM, PLK1 to GAPDH ratio, read-out: Dmax
In short: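 Thymidine-synchronised HeLa cells (2 mM, 24 h) released 4 h into complete medium, then treated 6 h with compound in 10-point 3-fold dilutions from 3 μM. RIPA lysates (15 μg protein) run on SDS-PAGE; PLK1 Western blot normalised to GAPDH.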

T1 sequence (P53350 whole entry): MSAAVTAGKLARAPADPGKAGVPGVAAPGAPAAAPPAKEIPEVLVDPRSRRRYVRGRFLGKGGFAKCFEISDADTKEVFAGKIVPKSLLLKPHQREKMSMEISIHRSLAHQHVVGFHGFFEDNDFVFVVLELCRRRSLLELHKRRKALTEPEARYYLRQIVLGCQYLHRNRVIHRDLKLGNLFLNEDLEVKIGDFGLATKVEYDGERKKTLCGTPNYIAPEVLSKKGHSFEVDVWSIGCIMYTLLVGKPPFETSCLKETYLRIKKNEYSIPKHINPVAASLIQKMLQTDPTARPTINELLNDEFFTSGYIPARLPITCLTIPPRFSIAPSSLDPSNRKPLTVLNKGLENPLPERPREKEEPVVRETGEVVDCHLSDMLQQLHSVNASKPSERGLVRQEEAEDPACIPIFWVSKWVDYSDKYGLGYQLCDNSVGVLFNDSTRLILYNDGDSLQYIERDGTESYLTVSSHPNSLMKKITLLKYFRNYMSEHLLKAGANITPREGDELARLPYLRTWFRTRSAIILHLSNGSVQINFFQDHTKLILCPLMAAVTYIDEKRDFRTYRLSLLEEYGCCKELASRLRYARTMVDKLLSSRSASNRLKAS

Row | DC50 [nM] | Dmax [%] | SMILES
1 | ≤ 500 | 60 to 80 | CN1C(=O)C(F)(F)CN(C2CCCC2)c2nc(Nc3ccc(C(=O)NC4CCN(CCOCCOCCNc5cccc6c5C(=O)N(C5CCC(=O)NC5=O)C6=O)CC4)cc3OCCO)ncc21 (stereo not shown) [Example 98, 4-((9-cyclopentyl-7,7-difluoro-5-methyl-6-oxo-6,7,8,9-tetrahydro-5H-pyrimido[4,5-b][1,4]diazepin-2-yl)amino)-N-(1-(2-(2-(2-((2-(2,6-dioxopiperidin-3-yl)-1,3-dioxoisoindolin-4-yl)amino)ethoxy)ethoxy)ethyl)piperidin-4-yl)-3-(2-hydroxyethoxy)benzamide]
2 | ≤ 500 | 60 to 80 | CN1C(=O)C(F)(F)CN(C2CCCC2)c2nc(Nc3cc(F)c(C(=O)NC4CCN(CCOCCOCCNc5cccc6c5C(=O)N(C5CCC(=O)NC5=O)C6=O)CC4)cc3OC(F)(F)F)ncc21 (stereo not shown) [Example 99, 4-((9-cyclopentyl-7,7-difluoro-5-methyl-6-oxo-6,7,8,9-tetrahydro-5H-pyrimido[4,5-b][1,4]diazepin-2-yl)amino)-N-(1-(2-(2-(2-((2-(2,6-dioxopiperidin-3-yl)-1,3-dioxoisoindolin-4-yl)amino)ethoxy)ethoxy)ethyl)piperidin-4-yl)-2-fluoro-5-(trifluoromethoxy)benzamide]
3 | ≤ 500 | 60 to 80 | COc1cc(C(=O)NC2CCN(CCOCCOCCNc3cccc4c3C(=O)N(C3CCC(=O)NC3=O)C4=O)CC2)c(F)cc1Nc1ncc2c(n1)N(C(C)C)CC(F)(F)C(=O)N2C (stereo not shown) [Example 100, 4-((7,7-difluoro-9-isopropyl-5-methyl-6-oxo-6,7,8,9-tetrahydro-5H-pyrimido[4,5-b][1,4]diazepin-2-yl)amino)-N-(1-(2-(2-(2-((2-(2,6-dioxopiperidin-3-yl)-1,3-dioxoisoindolin-4-yl)amino)ethoxy)ethoxy)ethyl)piperidin-4-yl)-2-fluoro-5-methoxybenzamide]
4 | ≤ 50 | ≥ 80 | COc1cc(C(=O)NC2CCN(CCOCCOCCOCCOCCNc3cccc4c3C(=O)N(C3CCC(=O)NC3=O)C4=O)CC2)c(F)cc1Nc1ncc2c(n1)N(C(C)C)CC(F)(F)C(=O)N2C (stereo not shown) [Example 101, 4-((7,7-difluoro-9-isopropyl-5-methyl-6-oxo-6,7,8,9-tetrahydro-5H-pyrimido[4,5-b][1,4]diazepin-2-yl)amino)-N-(1-(14-((2-(2,6-dioxopiperidin-3-yl)-1,3-dioxoisoindolin-4-yl)amino)-3,6,9,12-tetraoxatetradecyl)piperidin-4-yl)-2-fluoro-5-methoxybenzamide]
5 | ≤ 50 | ≥ 80 | CN1C(=O)C(F)(F)CN(C2CCCC2)c2nc(Nc3ccc(C(=O)NC4CCN(C(=O)CCCNc5cccc6c5C(=O)N(C5CCC(=O)NC5=O)C6=O)CC4)cc3)ncc21 (stereo not shown) [Example 102, 4-((9-cyclopentyl-7,7-difluoro-5-methyl-6-oxo-6,7,8,9-tetrahydro-5H-pyrimido[4,5-b][1,4]diazepin-2-yl)amino)-N-(1-(4-((2-(2,6-dioxopiperidin-3-yl)-1,3-dioxoisoindolin-4-yl)amino)butanoyl)piperidin-4-yl)benzamide]
6 | ≤ 50 | ≥ 80 | COc1cc(C(=O)N[C@H]2CC[C@H](N3CCN(CCOCCNc4cccc5c4C(=O)N(C4CCC(=O)NC4=O)C5=O)CC3)CC2)c(F)cc1Nc1ncc2c(n1)N(C1CCCC1)CC(F)(F)C(=O)N2C (stereo partly shown) [Example 103, 4-((9-cyclopentyl-7,7-difluoro-5-methyl-6-oxo-6,7,8,9-tetrahydro-5H-pyrimido[4,5-b][1,4]diazepin-2-yl)amino)-N-((1r,4r)-4-(4-(2-(2-((2-(2,6-dioxopiperidin-3-yl)-1,3-dioxoisoindolin-4-yl)amino)ethoxy)ethyl)piperazin-1-yl)cyclohexyl)-2-fluoro-5-methoxybenzamide]
7 | ≤ 50 | ≥ 80 | COc1cc(C(=O)NC2CCCN(CCOCCOCCNc3cccc4c3C(=O)N(C3CCC(=O)NC3=O)C4=O)C2)c(F)cc1Nc1ncc2c(n1)N(C1CCCC1)CC(F)(F)C(=O)N2C (stereo not shown) [Example 104, 4-((9-cyclopentyl-7,7-difluoro-5-methyl-6-oxo-6,7,8,9-tetrahydro-5H-pyrimido[4,5-b][1,4]diazepin-2-yl)amino)-N-(1-(2-(2-(2-((2-(2,6-dioxopiperidin-3-yl)-1,3-dioxoisoindolin-4-yl)amino)ethoxy)ethoxy)ethyl)piperidin-3-yl)-2-fluoro-5-methoxybenzamide]
8 | ≤ 500 | 60 to 80 | COc1cc(C(=O)NC2CCCN(CCOCCNc3cccc4c3C(=O)N(C3CCC(=O)NC3=O)C4=O)C2)c(F)cc1Nc1ncc2c(n1)N(C1CCCC1)CC(F)(F)C(=O)N2C (stereo not shown) [Example 105, 4-((9-cyclopentyl-7,7-difluoro-5-methyl-6-oxo-6,7,8,9-tetrahydro-5H-pyrimido[4,5-b][1,4]diazepin-2-yl)amino)-N-(1-(2-(2-((2-(2,6-dioxopiperidin-3-yl)-1,3-dioxoisoindolin-4-yl)amino)ethoxy)ethyl)piperidin-3-yl)-2-fluoro-5-methoxybenzamide]
9 | ≤ 500 | 60 to 80 | COc1cc(C(=O)NC2CCN(CCOCCNc3cccc4c3C(=O)N(C3CCC(=O)NC3=O)C4=O)C2)c(F)cc1Nc1ncc2c(n1)N(C1CCCC1)CC(F)(F)C(=O)N2C (stereo not shown) [Example 106, 4-((9-cyclopentyl-7,7-difluoro-5-methyl-6-oxo-6,7,8,9-tetrahydro-5H-pyrimido[4,5-b][1,4]diazepin-2-yl)amino)-N-(1-(2-(2-((2-(2,6-dioxopiperidin-3-yl)-1,3-dioxoisoindolin-4-yl)amino)ethoxy)ethyl)pyrrolidin-3-yl)-2-fluoro-5-methoxybenzamide]
10 | ≤ 50 | ≥ 80 | COc1cc(C(=O)NC2CCN(CCOCCOCCNc3cccc4c3C(=O)N(C3CCC(=O)NC3=O)C4=O)C2)c(F)cc1Nc1ncc2c(n1)N(C1CCCC1)CC(F)(F)C(=O)N2C (stereo not shown) [Example 107, 4-((9-cyclopentyl-7,7-difluoro-5-methyl-6-oxo-6,7,8,9-tetrahydro-5H-pyrimido[4,5-b][1,4]diazepin-2-yl)amino)-N-(1-(2-(2-(2-((2-(2,6-dioxopiperidin-3-yl)-1,3-dioxoisoindolin-4-yl)amino)ethoxy)ethoxy)ethyl)pyrrolidin-3-yl)-2-fluoro-5-methoxybenzamide]
11 | ≤ 50 | ≥ 80 | COc1cc(C(=O)NC2CCN(CCOCCOCCOCCOCCNc3cccc4c3C(=O)N(C3CCC(=O)NC3=O)C4=O)C2)c(F)cc1Nc1ncc2c(n1)N(C1CCCC1)CC(F)(F)C(=O)N2C (stereo not shown) [Example 108, 4-((9-cyclopentyl-7,7-difluoro-5-methyl-6-oxo-6,7,8,9-tetrahydro-5H-pyrimido[4,5-b][1,4]diazepin-2-yl)amino)-N-(1-(14-((2-(2,6-dioxopiperidin-3-yl)-1,3-dioxoisoindolin-4-yl)amino)-3,6,9,12-tetraoxatetradecyl)pyrrolidin-3-yl)-2-fluoro-5-methoxybenzamide]
12 | ≤ 500 | 60 to 80 | COc1cc(C(=O)NC2CCN(CCCCCNc3cccc4c3C(=O)N(C3CCC(=O)NC3=O)C4=O)C2)c(F)cc1Nc1ncc2c(n1)N(C1CCCC1)CC(F)(F)C(=O)N2C (stereo not shown) [Example 109, 4-((9-cyclopentyl-7,7-difluoro-5-methyl-6-oxo-6,7,8,9-tetrahydro-5H-pyrimido[4,5-b][1,4]diazepin-2-yl)amino)-N-(1-(5-((2-(2,6-dioxopiperidin-3-yl)-1,3-dioxoisoindolin-4-yl)amino)pentyl)pyrrolidin-3-yl)-2-fluoro-5-methoxybenzamide]
13 | ≤ 50 | ≥ 80 | COc1cc(C(=O)NC2CCN(CCOCCCNc3cccc4c3C(=O)N(C3CCC(=O)NC3=O)C4=O)C2)c(F)cc1Nc1ncc2c(n1)N(C1CCCC1)CC(F)(F)C(=O)N2C (stereo not shown) [Example 110, 4-((9-cyclopentyl-7,7-difluoro-5-methyl-6-oxo-6,7,8,9-tetrahydro-5H-pyrimido[4,5-b][1,4]diazepin-2-yl)amino)-N-(1-(2-(3-((2-(2,6-dioxopiperidin-3-yl)-1,3-dioxoisoindolin-4-yl)amino)propoxy)ethyl)pyrrolidin-3-yl)-2-fluoro-5-methoxybenzamide]
14 | ≤ 50 | ≥ 80 | COc1cc(C(=O)NC2CCN(CCCOCCCNc3cccc4c3C(=O)N(C3CCC(=O)NC3=O)C4=O)C2)c(F)cc1Nc1ncc2c(n1)N(C1CCCC1)CC(F)(F)C(=O)N2C (stereo not shown) [Example 111, 4-((9-cyclopentyl-7,7-difluoro-5-methyl-6-oxo-6,7,8,9-tetrahydro-5H-pyrimido[4,5-b][1,4]diazepin-2-yl)amino)-N-(1-(3-(3-((2-(2,6-dioxopiperidin-3-yl)-1,3-dioxoisoindolin-4-yl)amino)propoxy)propyl)pyrrolidin-3-yl)-2-fluoro-5-methoxybenzamide]
15 | ≤ 500 | 60 to 80 | COc1cc(C(=O)N[C@H]2CCN(CCOCCNC(=O)CNc3cccc4c3C(=O)N(C3CCC(=O)NC3=O)C4=O)C2)c(F)cc1Nc1ncc2c(n1)N(C1CCCC1)CC(F)(F)C(=O)N2C (stereo partly drawn) [Example 112, 4-((9-cyclopentyl-7,7-difluoro-5-methyl-6-oxo-6,7,8,9-tetrahydro-5H-pyrimido[4,5-b][1,4]diazepin-2-yl)amino)-N-((3S)-1-(2-(2-(2-((2-(2,6-dioxopiperidin-3-yl)-1,3-dioxoisoindolin-4-yl)amino)acetamido)ethoxy)ethyl)pyrrolidin-3-yl)-2-fluoro-5-methoxybenzamide]
16 |  | < 60 | COc1cc(C(=O)NCCCCCc2cccc3c2CN(C2CCC(=O)NC2=O)C3=O)c(F)cc1Nc1ncc2c(n1)N(C1CCCC1)CC(F)(F)C(=O)N2C (stereo not shown) [Example 165, 4-((9-cyclopentyl-7,7-difluoro-5-methyl-6-oxo-6,7,8,9-tetrahydro-5H-pyrimido[4,5-b][1,4]diazepin-2-yl)amino)-N-(5-(2-(2,6-dioxopiperidin-3-yl)-1-oxoisoindolin-4-yl)pentyl)-2-fluoro-5-methoxybenzamide]
